Data: publication PMC12040169 (PLOS Biology, 2025)

Assay: in vitro
Details: human, hela cells, % viability

Compound | viability at 28.5 h, 10 µM | viability at 28.5 h, 10 µM (bulk resorufin, single well)
C=CCn1c(SCC(=O)Nc2ccnc3ccccc23)nnc1-c1cccnc1 [CBK268723] | 88.6% | 
Cc1ccc(C(C)C)c(OCC(=O)Nc2cc(-c3nc4ccccc4[nH]3)ccc2C)c1 [CBK268724] | 80.7% | 
COc1ccc(N2CCN(CCNC(=O)Nc3ccc(Cl)cc3)CC2)cc1 [CBK268725] | 94.9% | 
O=C(NC(=S)Nc1ccc2c(c1)Cc1ccccc1-2)c1cc([N+](=O)[O-])ccc1N1CCOCC1 [CBK268726] | 104% | 
CCOc1ccccc1-c1nnc(SCC(=O)NC2CCCCC2)o1 [CBK268728] | 106% | 
CCn1c(SCC(=O)Nc2ccc([N+](=O)[O-])cc2O)nnc1-c1ccccc1 [CBK268730] | 87.2% | 
COC(=O)c1ccccc1OC(=O)COc1ccc(Cl)cc1Br [CBK268733] | 83.7% | 
O=C(O)CCSc1nnc(-c2cccnc2)n1-c1ccccc1 [CBK268734] | 102% | 
Cc1cc(-c2nnc(SCCC(=O)Nc3ccccc3)o2)no1 [CBK268737] | 104% | 
COc1cc(/C=C(/C#N)c2ccc(C(=O)O)cc2)c([N+](=O)[O-])cc1OCc1ccccc1 [CBK268738] | 92% | 
O=C(CN(c1ccccc1)S(=O)(=O)c1ccc(F)cc1)Nc1ccc(Cl)c(Cl)c1 [CBK268740] | 86.6% | 
CCOC(=O)N1CCN(CC(=O)N2c3ccccc3CCc3ccccc32)CC1 [CBK268744G] | 111% | 
Cc1cc2nc(/C(C#N)=C/c3ccncc3)[nH]c2cc1C [CBK268745] | 87.7% | 
CCOC(=O)C1=C(CSc2nccn2C)NC(=O)NC1c1ccc2c(c1)OCO2 (stereo not shown) [CBK268746] | 85.5% | 
Cc1cc([N+](=O)[O-])nn1CCCC(=O)Nc1cccc(O)c1 [CBK268747] | 87.1% | 
O=S(=O)(NCc1ccco1)N1CCOCC1 [CBK268749] | 90.2% | 
COc1ccc(C)cc1S(=O)(=O)N(C)CC(=O)Nc1cccc(C(C)=O)c1 [CBK268753] | 102% | 

Compound | viability at 28.5 h, 10 µM | viability at 28.5 h, 10 µM (bulk resorufin, single well)
CC(=O)Nc1ccc(OC(=O)CSc2nc(C)cc(-c3ccccc3)n2)cc1 [CBK268754] | 94.7% | 
C=CCN1C(=O)NC(=O)C(CCc2ccccn2)(CCc2ccccn2)C1=O [CBK268761] |  | 104%
O=C(Cc1coc2ccc3ccccc3c12)NNC(=O)c1ccccc1[N+](=O)[O-] [CBK268763] | 90.6% | 
CCOc1cc(/C=C(/C#N)C(N)=S)ccc1OCC(=O)N1CCCC1 [CBK268765] | 91.3% | 
COc1cc(S(=O)(=O)N2CCC(C(N)=O)CC2)ccc1Br [CBK268766] | 82.6% | 
Cc1cccc(NS(=O)(=O)c2cc(C(=O)NCc3ccccn3)ccc2C)c1 [CBK268767] | 70.7% | 
Cc1ccc(-n2c(SCC(=O)Nc3ccc(C)c([N+](=O)[O-])c3)nnc2-c2ccccc2O)c(C)c1 [CBK268769] | 96.6% | 
CC(C(=O)Nc1ccc(F)c(F)c1)n1cc([N+](=O)[O-])cn1 (stereo not shown) [CBK268771] | 92.9% | 
O=C(Nc1ccc(NC(=O)C2CC=CCC2C(=O)O)cc1Cl)C1CCCCC1 (stereo not shown) [CBK268772] | 89.7% | 
Cc1occc1-c1nnc(SCC(=O)c2ccc3c(c2)OCCO3)o1 [CBK268773] | 83.5% | 
Cc1ccc(-c2nc3ncccc3o2)cc1NC(=O)c1cccnc1 [CBK268774] | 100% | 
CSc1ncc(Cl)c(C(=O)Nc2ccc(S(=O)(=O)N3CCOCC3)cc2)n1 [CBK268775] | 106% | 
O=C(CSc1nnc(-c2cccnc2)s1)Nc1ccc([N+](=O)[O-])cc1 [CBK268777] | 112% | 
C=CCNC(=S)Nc1sc2c(c1C(=O)OCC)CC(C)CC2 (stereo not shown) [CBK268778] | 89.8% | 
CCCOc1ccc(S(=O)(=O)NCc2ccncc2)c2ccccc12 [CBK268780] | 83.3% | 
CCOc1cc(Cl)c(S(=O)(=O)NCCCN2CCOCC2)cc1Cl [CBK268781] | 87.9% | 
CSc1ncc(Cl)c(C(=O)Nc2nc(-c3ccc(S(=O)(=O)N4CCCCCC4)cc3)cs2)n1 [CBK268785] | 96.5% | 
